Experiments:
resting CD4+ T cells = experiment: T cell activation (CD69 and CD25 expression, flow cytometry); assay type: cell-based; conditions: resting CD4+ T cells of healthy human donors (FIG. 2)
Method: Compound 18a was also tested for its impact on T cell activation and cytokine release. Peripheral blood mononuclear cells (PBMC) were isolated by Ficoll density gradient centrifugation (Histopaque, Sigma Aldrich) from buffy coats of three healthy human donors (San Diego Blood Bank). Resting CD4^+ T cells were subsequently isolated by negative selection using magnetic beads (Miltenyi Biotec). Cells were treated with compound 18a, or 50 ng/ml Phorbol myristate acetate (PMA) and 1 μM lonomycin, or Dynabeads Human T-Activator CD3/CD28 (ThermoFisher Scientific) at a bead-to-cell ratio of 1:1, or left untreated. Expression of the early and late activation markers CD69 and CD25 on CD4+ T cells was assessed by flow cytometry using a Phycoerythrin-labeled anti-CD69 antibody (BioLegend; Cat #310906) and an Allophycocyanin-labeled anti-CD25 antibody (BioLegend; Cat #302610). Cytokine expression levels in cultures of PBMC or resting CD4+ T cells were analyzed using the LEGENDplex Human Inflammation Panel 13-plex (BioLegend).

[1] = Pharmacokinetic study in mice, snapshot PK; assay type: in vivo; conditions: female, C57BL/6J, mouse, plasma, ip, one hour after i.p. injection of 10 mg/kg
Method: All animal procedures were approved by the Sanford Burnham Prebys Medical Discovery Institute Institutional Animal Care and Use Committee and were performed according to the NIH guidelines for the Care and Use of Laboratory Animals. Adult female C57BL/6J were purchased from JAX laboratories and housed with free access to food and water on a 12 h light/dark cycle. Compounds were formulated in 5% DMSO, 10% Tween-80, and 85% dH2O and injected intraperitoneally (i.p.) into mice at doses of 10 mg/kg. For snapshot PK analysis, blood samples were collected retro-orbitally one hour after injection and for the time course PK study, blood samples were collected at 15 min, 30 min, 1 h, 2 h, 4 h, 6 h, 24 h time points. For the blood samples plasma was separated by centrifugation. Plasma samples were extracted with acetonitrile:water 4:1 with 0.1% formic acid containing indometacin as an internal standard. Samples were centrifuged and supernatants were diluted with acetonitrile:water and analyzed via LC-MS/MS on a Shimadzu Nexera X2 HPLC coupled to an AB Sciex 6500 QTRAP.
Plasma exposure of selected compounds at 1 h compared.
Plasma levels of parent compound determined one hour after i.p. injection of 10 mg/kg

BIR3 domain of cIAP2 = BIR3 domain of cIAP2 (Homo sapiens, UniProt Q13489); experiment: Fluorescence polarization assay; assay type: binding; conditions: SMAC-FITC probe, Ki calculated from IC50
BIR3 domain of cIAP2, sequence (Q13489 238-349 limits assumed): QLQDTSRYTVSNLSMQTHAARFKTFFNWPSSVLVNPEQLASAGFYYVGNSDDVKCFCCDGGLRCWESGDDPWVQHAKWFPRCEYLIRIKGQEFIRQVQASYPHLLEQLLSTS
How it was run: (§1)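 Competitive FP with 50 nM SMAC-FITC probe in 100 mM KH2PO4 pH 7.5, 50 μM ZnSO4, 1 mM TCEP; cIAP1 and XIAP at 800 nM, cIAP2 and ML-IAP at 1.5 μM. Compounds 30 μM to 1.5 nM in 3-fold steps; ex 485/em 535 nm. IC50 by nonlinear fit, converted to Ki via Nikolovska-Coleska equation.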

ML-IAP = biological target: T1, ML-IAP (Homo sapiens, UniProt Q96CA5); experiment: Fluorescence polarization assay; assay type: binding; conditions: SMAC-FITC probe, Ki calculated from IC50
T1 sequence (Q96CA5 1-298): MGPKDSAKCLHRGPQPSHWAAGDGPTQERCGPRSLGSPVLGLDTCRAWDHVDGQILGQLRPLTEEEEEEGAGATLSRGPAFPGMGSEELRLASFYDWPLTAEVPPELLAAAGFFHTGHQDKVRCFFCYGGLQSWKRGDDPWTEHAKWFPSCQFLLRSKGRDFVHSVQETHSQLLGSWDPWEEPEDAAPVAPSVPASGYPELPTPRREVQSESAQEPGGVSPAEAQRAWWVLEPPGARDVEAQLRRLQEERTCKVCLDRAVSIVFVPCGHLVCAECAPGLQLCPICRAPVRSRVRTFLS
How it was run: as §1

BIR3 domain of cIAP1 = BIR3 domain of cIAP1 (Homo sapiens, UniProt Q13490); experiment: Fluorescence polarization assay; assay type: binding; conditions: SMAC-FITC probe, Ki calculated from IC50
BIR3 domain of cIAP1, sequence (Q13490 253-363 limits assumed): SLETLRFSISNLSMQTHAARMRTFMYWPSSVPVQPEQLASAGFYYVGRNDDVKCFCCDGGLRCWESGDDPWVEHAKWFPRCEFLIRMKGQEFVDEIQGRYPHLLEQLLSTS
How it was run: as §1

BIR3 domain of XIAP = BIR3 domain of XIAP (Homo sapiens, UniProt P98170); experiment: Fluorescence polarization assay; assay type: binding; conditions: SMAC-FITC probe, Ki calculated from IC50
BIR3 domain of XIAP, sequence (P98170 241-356 limits assumed): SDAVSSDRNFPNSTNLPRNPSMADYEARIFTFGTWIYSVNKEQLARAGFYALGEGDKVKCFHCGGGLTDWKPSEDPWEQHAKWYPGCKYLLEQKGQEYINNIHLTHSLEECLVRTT
How it was run: as §1

SW-1271 = experiment: Cell viability (CellTiter-Glo), 6-day compound treatment; assay type: cell-based, Human
Method: (§2) The compound 18a was tested in 16 different cell lines. For 6-day compound treatment 1700 cells per well were plated in a 384-well plate (Corning #781098) and incubated overnight at 37° C./5% CO2. The following day, compounds in 10-fold dilutions were added to the plates and the plates were incubated for 6 days. Afterwards, 20 μL CellTiter-Glo reagent (Promega, #G7570) was added to each well outside of the incubator and the plates were read for luminescence on a Spark® multimode microplate reader (Tecan). Data was fit in GraphPad Prism 8 to a nonlinear regression curve to determine the IC50 of the compounds.

SHP-77 = experiment: as above; assay type: cell-based, Human
Method: as §2

HFF = experiment: as above; assay type: cell-based, Human; conditions: Homo sapiens, 144 h, read-out: IC50 6 d
Method: as §2

MALME 3M = experiment: as above; assay type: cell-based, Human
Method: as §2

BT549 = experiment: as above; assay type: cell-based, Human
Method: as §2

[2] = test system: cIAP1 degradation and p100 cleavage in JLat 10.6 cells; experiment: cIAP1 degradation and p100 cleavage (western blot) with GFP expression; assay type: cell-based; conditions: 24 hours, different concentrations (FIG. 4)
Method: JLat 10.6 cells were treated with different concentrations of compound 18a for 24 hours. GFP expression indicating latency reversal was measured by flow cytometry. cIAP1 degradation and p100 cleavage were assessed by western blot using the antibodies AF8181 (R&D Systems) and #4882 (Cell Signaling Technology), respectively.

SMILES: CN[C@@H](C)C(=O)N[C@H]1CCS[C@H]2CC(C)(C)[C@@H](C(=O)N[C@H]3c4ccccc4C[C@H]3OCC#CC#CCO[C@@H]3Cc4ccccc4[C@@H]3NC(=O)[C@H]3N4C(=O)[C@@H](NC(=O)[C@H](C)NC)CCS[C@H]4CC3(C)C)N2C1=O [Compound 18a, (2S)-1-{[(4S,7S,9aS)-74{(1S,2R)-2-[(6-{[(1S,2R)-1-({[(4S,7S,9aS)-8,8-Dimethyl-4-{[(2S)-2-(methylammonio)propanoyl]amino}-5-oxooctahydropyrrolo[2,1-b][1,3]thiazepin-7-yl]carbonyl}amino)-2,3-dihydro-1H-inden-2-yl]oxy}hexa-2,4-diyn-1-yl)oxy]-2,3-dihydro-1H-inden-1-yl}carbamoyl)-8,8-dimethyl-5-oxooctahydropyrrolo[2,1-b][1,3]thiazepinyl]amino}-N-methyl-1-oxopropan-2-ammonium dichloride]
- activation of resting CD4+ T cells (CD69, CD25) (resting CD4+ T cells): did not induce activation of resting CD4+ T cells
- concentration at 1 h [1]: 3.52 µM
- Ki (BIR3 domain of cIAP2): 50 to 100 nM
- Ki (ML-IAP): 50 to 100 nM
- Ki (BIR3 domain of cIAP1): ≤ 50 nM
- Ki (BIR3 domain of XIAP): ≤ 50 nM
- IC50 (SW-1271; Homo sapiens, SW1271, 144 h, read-out: IC50 6 d): 100 to 1000 nM
- Cell viability at max. concentration (SW-1271; SW-1271, 6 d): I (I<10%)
- IC50 (SHP-77; Homo sapiens, SHP77, 144 h, read-out: IC50 6 d): < 100000 nM
- Cell viability at max. concentration (SHP-77; SHP-77, 6 d): IV (IV<100%)
- IC50 (HFF): < 100000 nM
- IC50 (MALME 3M; Homo sapiens, Malme-3M, 144 h, read-out: IC50 6 d): 10 to 100 nM
- Cell viability at max. concentration (MALME 3M; MALME 3M, 6 d): I (I<10%)
- Cell viability at max. concentration (BT549; BT549, 6 d): I (I<10%)
- IC50 (BT549; Homo sapiens, BT-549, 144 h, read-out: IC50 6 d): 10 to 100 nM
- cIAP1 degradation and p100 cleavage [2]: correlated with HW latency reversal

Reference: US12678509B2, “Inhibitor of apoptosis (IAP) protein antagonists” (Sanford Burnham Prebys Medical Discovery Institute, priority 2019, dated 2026)
